Key:
Assay in all cases: Kinase panel
Assay type in all cases: biochemical
Conditions in all cases: read-out: % Residual Activity
AMPKα1(h) = target: T1, AMPKα1(h) (Homo sapiens, UniProt Q13131)
T1 construct: purchased Eurofins (KinaseProfiler)
Method in brief: (§1)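 Steps: profile rilpivirine against a broad kinase panel; determine IC50 by radioactive assay using ATP at the kinase-specific Km; convert IC50 to Ki by the Cheng–Prusoff relationship.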

Arg(m) = target: T2, Arg(m) (Mus musculus, UniProt Q4JIM5)
T2 construct: purchased Eurofins (KinaseProfiler)
Method in brief: as §1

Aurora-A(h) = target: T3, Aurora-A(h) (Homo sapiens, UniProt O14965)
T3 construct: purchased Eurofins (KinaseProfiler)
Method in brief: as §1

Aurora-B(h) = target: T4, Aurora-B(h) (Homo sapiens, UniProt Q96GD4)
T4 construct: purchased Eurofins (KinaseProfiler)
Method in brief: as §1

B-Raf(V599E)(h) = target: T5, B-Raf(V599E)(h) (Homo sapiens, UniProt P15056, V600E)
T5 construct: purchased Eurofins (KinaseProfiler)
Method in brief: as §1

CDK12/cyclinK(h) = target: T6, CDK12/cyclinK(h) (Homo sapiens, UniProt Q9NYV4)
T6 construct: purchased Eurofins (KinaseProfiler)
Method in brief: as §1

CDK13/cyclinK(h) = target: T7, CDK13/cyclinK(h) (Homo sapiens, UniProt Q14004)
T7 construct: purchased Eurofins (KinaseProfiler)
Method in brief: as §1

CDKL4(h) = target: T8, CDKL4(h) (Homo sapiens, UniProt Q5MAI5)
T8 construct: purchased Eurofins (KinaseProfiler)
Method in brief: as §1

CRIK(h) = target: T9, CRIK(h) (Homo sapiens, UniProt O14578)
T9 construct: purchased Eurofins (KinaseProfiler)
Method in brief: as §1

CaMKIIα(h) = target: T10, CaMKIIα(h) (Homo sapiens, UniProt Q9UQM7)
T10 construct: purchased Eurofins (KinaseProfiler)
Method in brief: as §1

CaMKIIγ(h) = target: T11, CaMKIIγ(h) (Homo sapiens, UniProt Q13555)
T11 construct: purchased Eurofins (KinaseProfiler)
Method in brief: as §1

ChaK1(h) = target: T12, ChaK1(h) (Homo sapiens, UniProt Q96QT4)
T12 construct: purchased Eurofins (KinaseProfiler)
Method in brief: as §1

DYRK1A(h) = target: T13, DYRK1A(h) (Homo sapiens, UniProt Q13627)
T13 construct: purchased Eurofins (KinaseProfiler)
Method in brief: as §1

Fer(h) = target: T14, Fer(h) (Homo sapiens, UniProt P16591)
T14 construct: purchased Eurofins (KinaseProfiler)
Method in brief: as §1

GRK3(h) = target: T15, GRK3(h) (Homo sapiens, UniProt P35626)
T15 construct: purchased Eurofins (KinaseProfiler)
Method in brief: as §1

GRK5(h) = target: T16, GRK5(h) (Homo sapiens, UniProt P34947)
T16 construct: purchased Eurofins (KinaseProfiler)
Method in brief: as §1

IRE1(h) = target: T17, IRE1(h) (Homo sapiens, UniProt O75460)
T17 construct: purchased Eurofins (KinaseProfiler)
Method in brief: as §1

LATS1(h) = target: T18, LATS1(h) (Homo sapiens, UniProt O95835)
T18 construct: purchased Eurofins (KinaseProfiler)
Method in brief: as §1

MAK(h) = target: T19, MAK(h) (Homo sapiens, UniProt P20794)
T19 construct: purchased Eurofins (KinaseProfiler)
Method in brief: as §1

MAP4K5(h) = target: T20, MAP4K5(h) (Homo sapiens, UniProt Q9Y4K4)
T20 construct: purchased Eurofins (KinaseProfiler)
Method in brief: as §1

MELK(h) = target: T21, MELK(h) (Homo sapiens, UniProt Q14680)
T21 construct: purchased Eurofins (KinaseProfiler)
Method in brief: as §1

NEK6(h) = target: T22, NEK6(h) (Homo sapiens, UniProt Q9HC98)
T22 construct: purchased Eurofins (KinaseProfiler)
Method in brief: as §1

NIM1(h) = target: T23, NIM1(h) (Homo sapiens, UniProt Q8IY84)
T23 construct: purchased Eurofins (KinaseProfiler)
Method in brief: as §1

PDGFRβ(h) = target: T24, PDGFRβ(h) (Homo sapiens, UniProt P09619)
T24 construct: purchased Eurofins (KinaseProfiler)
Method in brief: as §1

PDHK4(h) = target: T25, PDHK4(h) (Homo sapiens, UniProt Q16654)
T25 construct: purchased Eurofins (KinaseProfiler)
Method in brief: as §1

[1] = target: PI3 Kinase (p110b/p85b)(m) (Mus musculus, UniProt Q8BTI9)
Method in brief: as §1

PI3KC2a(h) = PI3KC2a(h) (Homo sapiens, UniProt O00443)
Method in brief: as §1

PKCε(h) = target: T26, PKCε(h) (Homo sapiens, UniProt Q02156)
T26 construct: purchased Eurofins (KinaseProfiler)
Method in brief: as §1

PKCη(h) = target: T27, PKCη(h) (Homo sapiens, UniProt P24723)
T27 construct: purchased Eurofins (KinaseProfiler)
Method in brief: as §1

PKD2(h) = target: T28, PKD2(h) (Homo sapiens, UniProt Q9BZL6)
T28 construct: purchased Eurofins (KinaseProfiler)
Method in brief: as §1

Plk1(h) = target: T29, Plk1(h) (Homo sapiens, UniProt P53350)
T29 construct: purchased Eurofins (KinaseProfiler)
Method in brief: as §1

RIPK1(h) = target: T30, RIPK1(h) (Homo sapiens, UniProt Q13546)
T30 construct: purchased Eurofins (KinaseProfiler)
Method in brief: as §1

ROCK-II(h) = target: T31, ROCK-II(h) (Homo sapiens, UniProt O75116)
T31 construct: purchased Eurofins (KinaseProfiler)
Method in brief: as §1

ROCK-II(r) = target: T32, ROCK-II(r) (Rattus norvegicus, UniProt Q62868)
T32 construct: purchased Eurofins (KinaseProfiler)
Method in brief: as §1

TAF1L(h) = target: T33, TAF1L(h) (Homo sapiens, UniProt Q8IZX4)
T33 construct: purchased Eurofins (KinaseProfiler)
Method in brief: as §1

TTBK2(h) = target: T34, TTBK2(h) (Homo sapiens, UniProt Q6IQ55)
T34 construct: purchased Eurofins (KinaseProfiler)
Method in brief: as §1

TTK(h) = target: T35, TTK(h) (Homo sapiens, UniProt P33981)
T35 construct: purchased Eurofins (KinaseProfiler)
Method in brief: as §1

WNK1(h) = target: T36, WNK1(h) (Homo sapiens, UniProt Q9H4A3)
T36 construct: purchased Eurofins (KinaseProfiler)
Method in brief: as §1

WNK4(h) = target: T37, WNK4(h) (Homo sapiens, UniProt Q96J92)
T37 construct: purchased Eurofins (KinaseProfiler)
Method in brief: as §1

Sequence of PI3 Kinase (p110b/p85b)(m) (Q8BTI9 whole entry): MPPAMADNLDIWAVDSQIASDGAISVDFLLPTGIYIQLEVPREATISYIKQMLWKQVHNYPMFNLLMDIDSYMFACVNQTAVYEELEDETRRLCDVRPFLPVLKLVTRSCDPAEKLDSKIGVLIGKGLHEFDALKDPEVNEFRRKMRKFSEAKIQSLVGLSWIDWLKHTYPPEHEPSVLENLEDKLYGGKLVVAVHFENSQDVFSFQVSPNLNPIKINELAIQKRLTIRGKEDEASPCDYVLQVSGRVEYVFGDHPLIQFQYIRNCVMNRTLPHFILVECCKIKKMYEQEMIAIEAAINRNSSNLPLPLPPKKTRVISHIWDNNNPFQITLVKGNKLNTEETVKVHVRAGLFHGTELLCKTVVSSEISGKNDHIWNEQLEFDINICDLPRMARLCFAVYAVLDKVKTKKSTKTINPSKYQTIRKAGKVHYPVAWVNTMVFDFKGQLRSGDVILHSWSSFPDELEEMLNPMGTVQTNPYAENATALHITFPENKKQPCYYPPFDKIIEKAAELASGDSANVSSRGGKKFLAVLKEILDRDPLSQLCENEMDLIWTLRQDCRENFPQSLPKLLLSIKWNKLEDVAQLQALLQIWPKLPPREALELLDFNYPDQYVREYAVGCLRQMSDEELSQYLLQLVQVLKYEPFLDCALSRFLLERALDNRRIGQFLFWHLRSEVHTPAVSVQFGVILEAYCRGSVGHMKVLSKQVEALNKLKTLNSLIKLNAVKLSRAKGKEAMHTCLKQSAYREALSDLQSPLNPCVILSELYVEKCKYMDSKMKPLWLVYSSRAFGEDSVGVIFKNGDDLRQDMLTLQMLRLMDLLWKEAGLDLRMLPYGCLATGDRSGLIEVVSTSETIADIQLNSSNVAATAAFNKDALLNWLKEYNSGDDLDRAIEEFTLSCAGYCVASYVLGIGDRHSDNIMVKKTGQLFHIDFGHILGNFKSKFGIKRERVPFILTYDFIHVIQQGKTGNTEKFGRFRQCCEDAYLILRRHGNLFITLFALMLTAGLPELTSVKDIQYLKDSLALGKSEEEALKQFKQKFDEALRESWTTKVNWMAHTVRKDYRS
Sequence of PI3 Kinase (p110b/p85b)(m) (O08908 whole entry partner): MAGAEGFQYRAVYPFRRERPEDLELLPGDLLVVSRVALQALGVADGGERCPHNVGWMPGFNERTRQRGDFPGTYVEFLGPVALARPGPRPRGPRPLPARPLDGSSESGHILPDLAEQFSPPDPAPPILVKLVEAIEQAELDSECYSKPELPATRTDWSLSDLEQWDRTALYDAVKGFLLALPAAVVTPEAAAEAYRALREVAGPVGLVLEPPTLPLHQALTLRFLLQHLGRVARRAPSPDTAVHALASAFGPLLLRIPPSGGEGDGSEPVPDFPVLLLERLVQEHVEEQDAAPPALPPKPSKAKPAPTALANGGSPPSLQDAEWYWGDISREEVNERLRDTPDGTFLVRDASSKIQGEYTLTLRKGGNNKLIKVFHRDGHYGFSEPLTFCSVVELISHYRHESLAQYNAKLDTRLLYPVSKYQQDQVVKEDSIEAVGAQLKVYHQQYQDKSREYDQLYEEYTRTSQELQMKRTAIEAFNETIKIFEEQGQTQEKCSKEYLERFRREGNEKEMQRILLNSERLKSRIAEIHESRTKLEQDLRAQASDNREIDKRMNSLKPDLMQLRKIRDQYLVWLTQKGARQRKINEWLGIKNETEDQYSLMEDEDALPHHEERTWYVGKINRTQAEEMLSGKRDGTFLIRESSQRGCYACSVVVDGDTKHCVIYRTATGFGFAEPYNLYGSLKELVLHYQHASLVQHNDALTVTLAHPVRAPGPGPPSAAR
T29 sequence (P53350 whole entry): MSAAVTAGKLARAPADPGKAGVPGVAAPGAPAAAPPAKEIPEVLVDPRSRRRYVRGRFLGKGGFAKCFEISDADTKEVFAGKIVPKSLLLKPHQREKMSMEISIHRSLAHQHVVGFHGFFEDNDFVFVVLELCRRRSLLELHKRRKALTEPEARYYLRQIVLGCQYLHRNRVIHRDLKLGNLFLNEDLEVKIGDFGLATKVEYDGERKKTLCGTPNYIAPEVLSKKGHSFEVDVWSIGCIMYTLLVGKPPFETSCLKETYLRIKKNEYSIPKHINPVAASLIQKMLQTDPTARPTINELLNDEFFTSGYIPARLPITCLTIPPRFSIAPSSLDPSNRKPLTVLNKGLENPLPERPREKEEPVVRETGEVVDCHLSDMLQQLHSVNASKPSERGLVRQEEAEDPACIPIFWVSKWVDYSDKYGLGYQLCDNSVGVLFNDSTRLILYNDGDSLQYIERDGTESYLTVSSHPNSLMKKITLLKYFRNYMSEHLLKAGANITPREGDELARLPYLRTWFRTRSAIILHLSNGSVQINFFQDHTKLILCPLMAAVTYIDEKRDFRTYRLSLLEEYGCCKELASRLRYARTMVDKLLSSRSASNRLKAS
T18 sequence (O95835 whole entry): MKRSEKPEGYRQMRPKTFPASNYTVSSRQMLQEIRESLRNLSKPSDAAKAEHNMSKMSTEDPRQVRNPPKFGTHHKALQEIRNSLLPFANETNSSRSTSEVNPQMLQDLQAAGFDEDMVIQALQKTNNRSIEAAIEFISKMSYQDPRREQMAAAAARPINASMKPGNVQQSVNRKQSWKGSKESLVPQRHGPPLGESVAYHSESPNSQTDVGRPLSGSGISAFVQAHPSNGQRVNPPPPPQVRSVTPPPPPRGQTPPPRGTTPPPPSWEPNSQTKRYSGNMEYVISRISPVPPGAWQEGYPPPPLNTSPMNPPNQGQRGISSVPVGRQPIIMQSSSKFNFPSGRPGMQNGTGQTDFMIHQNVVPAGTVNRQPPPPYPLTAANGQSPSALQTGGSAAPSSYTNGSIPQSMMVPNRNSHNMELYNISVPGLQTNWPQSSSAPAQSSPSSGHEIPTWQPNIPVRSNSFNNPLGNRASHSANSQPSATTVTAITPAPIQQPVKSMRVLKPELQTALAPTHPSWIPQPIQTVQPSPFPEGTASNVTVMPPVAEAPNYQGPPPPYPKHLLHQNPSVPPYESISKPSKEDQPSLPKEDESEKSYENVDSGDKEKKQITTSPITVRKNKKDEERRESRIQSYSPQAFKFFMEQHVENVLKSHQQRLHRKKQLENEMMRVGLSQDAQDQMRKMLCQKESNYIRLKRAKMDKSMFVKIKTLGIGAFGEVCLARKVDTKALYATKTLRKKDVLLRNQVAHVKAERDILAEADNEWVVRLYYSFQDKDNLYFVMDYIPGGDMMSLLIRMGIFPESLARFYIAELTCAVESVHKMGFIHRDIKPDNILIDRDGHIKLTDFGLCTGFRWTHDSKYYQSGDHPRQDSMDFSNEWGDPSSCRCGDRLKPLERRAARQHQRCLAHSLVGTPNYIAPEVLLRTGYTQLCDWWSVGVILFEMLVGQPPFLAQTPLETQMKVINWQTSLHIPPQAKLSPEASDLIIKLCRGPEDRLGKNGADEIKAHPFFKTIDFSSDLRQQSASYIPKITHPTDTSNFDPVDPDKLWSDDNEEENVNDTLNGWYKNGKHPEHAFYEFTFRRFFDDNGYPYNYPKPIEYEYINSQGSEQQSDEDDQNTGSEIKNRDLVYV
T20 sequence (Q9Y4K4 whole entry): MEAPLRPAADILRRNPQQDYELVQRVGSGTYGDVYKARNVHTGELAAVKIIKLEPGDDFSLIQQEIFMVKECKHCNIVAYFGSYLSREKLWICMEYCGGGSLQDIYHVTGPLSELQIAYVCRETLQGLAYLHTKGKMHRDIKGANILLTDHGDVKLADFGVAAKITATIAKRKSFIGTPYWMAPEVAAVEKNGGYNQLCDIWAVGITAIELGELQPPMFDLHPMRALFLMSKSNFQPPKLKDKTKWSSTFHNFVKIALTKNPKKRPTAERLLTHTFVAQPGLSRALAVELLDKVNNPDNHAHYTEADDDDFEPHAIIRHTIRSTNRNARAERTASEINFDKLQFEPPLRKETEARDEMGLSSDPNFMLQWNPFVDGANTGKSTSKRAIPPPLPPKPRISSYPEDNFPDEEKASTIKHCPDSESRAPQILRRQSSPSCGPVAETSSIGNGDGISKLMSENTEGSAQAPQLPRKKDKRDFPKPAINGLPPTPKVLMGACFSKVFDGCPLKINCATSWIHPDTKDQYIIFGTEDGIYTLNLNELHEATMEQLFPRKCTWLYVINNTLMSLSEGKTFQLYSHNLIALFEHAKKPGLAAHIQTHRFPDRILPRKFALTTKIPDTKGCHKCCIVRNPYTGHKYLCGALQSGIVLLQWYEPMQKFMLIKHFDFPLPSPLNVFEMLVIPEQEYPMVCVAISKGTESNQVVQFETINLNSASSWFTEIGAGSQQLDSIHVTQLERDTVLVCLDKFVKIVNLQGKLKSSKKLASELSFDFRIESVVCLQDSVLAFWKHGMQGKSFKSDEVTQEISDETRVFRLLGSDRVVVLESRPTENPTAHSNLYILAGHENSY
T3 sequence (O14965 whole entry): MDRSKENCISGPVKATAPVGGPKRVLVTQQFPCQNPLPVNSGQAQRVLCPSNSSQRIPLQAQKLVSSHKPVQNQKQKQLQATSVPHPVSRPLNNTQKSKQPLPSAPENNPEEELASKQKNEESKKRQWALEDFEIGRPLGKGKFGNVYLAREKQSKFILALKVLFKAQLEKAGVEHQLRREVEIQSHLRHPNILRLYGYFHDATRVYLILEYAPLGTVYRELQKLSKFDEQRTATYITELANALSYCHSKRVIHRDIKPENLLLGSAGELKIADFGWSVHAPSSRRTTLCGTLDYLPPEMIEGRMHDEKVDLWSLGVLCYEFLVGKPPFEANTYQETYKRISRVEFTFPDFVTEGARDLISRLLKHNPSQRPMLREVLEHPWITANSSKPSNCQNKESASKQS

`Cc1cc(/C=C/C#N)cc(C)c1Nc1ccnc(Nc2ccc(C#N)cc2)n1` [rilpivirine, (E)-4-((4-((4-(2-cyanoethenyl)-2,6-dimethylphenyl)amino)pyrimidin-2-yl)amino)benzonitrile] was tested, and the remaining activity at 1 µM (AMPKα1(h)) was 44%, the remaining activity at 1 µM (Arg(m)) was 48% and the remaining activity at 1 µM (Aurora-A(h)) was 14%. For the same compound, the remaining activity at 1 µM (Aurora-B(h)) was 85%, the remaining activity at 1 µM (B-Raf(V599E)(h)) was 95% and the remaining activity at 1 µM (CDK12/cyclinK(h)) was 85%. It also gave a remaining activity at 1 µM (CDK13/cyclinK(h)) of 82%, a remaining activity at 1 µM (CDKL4(h)) of 74% and a remaining activity at 1 µM (CRIK(h)) of 107%. It also gave a remaining activity at 1 µM (CaMKIIα(h)) of 61%, a remaining activity at 1 µM (CaMKIIγ(h)) of 58% and a remaining activity at 1 µM (ChaK1(h)) of 94%. The remaining activity at 1 µM (DYRK1A(h)) was 56%, the remaining activity at 1 µM (Fer(h)) was 91% and the remaining activity at 1 µM (GRK3(h)) was 92%. The remaining activity at 1 µM (GRK5(h)) was 96%, the remaining activity at 1 µM (IRE1(h)) was 100% and the remaining activity at 1 µM (LATS1(h)) was 86%. For the same compound, the remaining activity at 1 µM (MAK(h)) was 84%, the remaining activity at 1 µM (MAP4K5(h)) was 34% and the remaining activity at 1 µM (MELK(h)) was 56%. The remaining activity at 1 µM (NEK6(h)) was 94%, the remaining activity at 1 µM (NIM1(h)) was 88% and the remaining activity at 1 µM (PDGFRβ(h)) was 93%. For the same compound, the remaining activity at 1 µM (PDHK4(h)) was 94%, the remaining activity at 1 µM [1] was 97% and the remaining activity at 1 µM (PI3KC2a(h)) was 94%. It also gave a remaining activity at 1 µM (PKCε(h)) of 89%, a remaining activity at 1 µM (PKCη(h)) of 103% and a remaining activity at 1 µM (PKD2(h)) of 115%. For the same compound, the remaining activity at 1 µM (Plk1(h)) was 107%, the remaining activity at 1 µM (RIPK1(h)) was 91% and the remaining activity at 1 µM (ROCK-II(h)) was 98%. The remaining activity at 1 µM (ROCK-II(r)) was 94%, the remaining activity at 1 µM (TAF1L(h)) was 55% and the remaining activity at 1 µM (TTBK2(h)) was 88%. The remaining activity at 1 µM (TTK(h)) was 71%, the remaining activity at 1 µM (WNK1(h)) was 95% and the remaining activity at 1 µM (WNK4(h)) was 113%.

From article PMC9954146, “Anti-Leukaemic Activity of Rilpivirine Is Mediated by Aurora A Kinase Inhibition” (Cancers, 2023)
